Test results from patent US20070116831A1, “Dental Composition with High-Potency Sweetener” (THE COCA-COLA COMPANY, priority 2005, published 2007).

Assay: Rate of dissolution in H2O at 25° C. of rebaudioside A polymorph and amorphous forms
Type: physicochemical
Details: within 60 minutes
From the text: The purification of rebaudioside A by crystallization as described above results in the formation of at least three different polymorphs: Form 1: a rebaudioside A hydrate; Form 2: an anhydrous rebaudioside A; and Form 3: a rebaudioside A solvate. In addition to the at least three polymorph forms of rebaudioside A, the purification of rebaudioside A may result in the formation of an amorphous form of rebaudioside A, Form 4. The aqueous organic solution and temperature of the purification process influence the resulting polymorph and amorphous forms in the substantially pure rebaudioside A composition. FIGS. 1-5 are exemplary powder x-ray diffraction (XRPD) scans of the polymorph and amorphous forms Form 1 (hydrate), Form 2 (anhydrate), Form 3A (methanol solvate), Form 3B (ethanol solvate), and Form 4 (amorphous), respectively.

Rate of dissolution in H2O at 25° C.: Very low (<0.2%/ %/60 minutes
Substance: rebaudioside A [Form 1]
